# According to PubChem BioAssay AID464 (The Scripps Research Institute Molecular Screening Center, 2006):
# The source made the active and inactive calls.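 How the source made its calls: active means Compounds that kill half the cells at a concentration of 5 micromolar or below, from the fitted or estimated CC50; inactive means CC50 above 5 micromolar.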
# Tested on: Jurkat E6.1 viability, ATP luminescence, 48 h
# Test: viability loss in Jurkat T cells – cell-based, ATP luminescence, 48 h, 60K MLSMR, cytotoxicity control, dose response (AID 464)
row,SMILES,CC50
1,Cc1cccc(N2CCN(C(=O)c3ccc(CS(=O)(=O)c4ccccc4C)o3)CC2C)c1 (stereo not drawn),0.785 µM
2,Cc1ccc(C)c(N2CCN(C(=O)c3ccc(CS(=O)(=O)c4ccccc4C)o3)CC2)c1,14.2 µM (inactive)
3,O=C(c1ccc2c(c1)ncn2C1CCCCC1)N1CCC2(CC1)OCCO2,5.19 µM (inactive)
4,CCOC(=O)CSC1=C(C#N)C(c2ccc(C)s2)CC(=O)N1 (stereo not drawn),1.56 µM
5,CCCCOC(=O)c1[nH]c2c(c1C)C(=O)CC(c1cc(OC)c(OC)c(OC)c1)C2 (stereo not drawn),18.7 µM (inactive)
6,COc1cccc(C2=CC(c3cccc(OC)c3OC)n3nnnc3N2)c1 (stereo not drawn),16.5 µM (inactive)
7,CC(C)C(=O)Nc1ccc(C(=O)NCc2cccnc2)cc1,3.87 µM
8,CNc1nc2c(c(=O)n(C)c(=O)n2C)n1Cc1ccccc1,7.54 µM (inactive)
9,O=C(Nc1nc(-c2nc3ccccc3s2)cs1)c1ccc(S(=O)(=O)N2CCOCC2)cc1,> 40 µM (inactive)
10,CCOc1cc(C(=O)N2CCc3cc(OC)c(OC)cc3C2)ccc1OC(F)F,0.366 µM
11,Cc1ccsc1C=Nc1ccc(O)cc1,39.3 µM (inactive)
12,CCOC(=O)N1CCC(NC(=O)c2ccc3c(c2)sc2nc(-c4cccc(OC)c4)cn23)CC1,35.1 µM (inactive)
13,COc1ccc(C2=NOC(C(=O)NCc3ccccc3)C2)cc1 (stereo not drawn),3.26 µM
14,Cc1cc(NC(=O)CSc2nc(-c3cccs3)cc(C(F)(F)F)n2)no1,0.264 µM
15,O=S1(=O)C=C(Sc2nc3ccccc3s2)c2ccccc21,0.647 µM
16,COc1ccc(CCNCc2csc3nc4ccccc4n23)cc1OC,8.02 µM (inactive)
17,CC(=O)Nc1ccccc1OCC(=O)c1cc(C)n(Cc2cccs2)c1C,0.16 µM
18,COC(=O)c1ccc(Oc2cc(C)nc(-n3nc(C)cc3C)n2)cc1,0.112 µM
19,Cc1ccc(S(=O)(=O)C2(S(=O)(=O)c3ccc(C)cc3)CCCC2)cc1,3.23 µM
20,COc1ccccc1-c1cc(C(=O)Nc2cc(C)nn2-c2ccccc2)no1,6.14 µM (inactive)
21,O=C(c1cccc(F)c1)N1CCN(c2cccc(Cl)c2)CC1,4.55 µM
22,COc1cccc(C2C=C(c3ccc(OC)cc3OC)Nc3nnnn32)c1 (stereo not drawn),18.4 µM (inactive)

row,SMILES,CC50
1,Cc1cc(NC(=O)CSc2nc3ccccc3c(=O)n2C2CCCC2)no1,0.469 µM
2,CCC(C)c1ccc(NC(=O)C2CCCN(c3ncccn3)C2)cc1 (stereo not drawn),10.4 µM (inactive)
3,Cc1nc(C)c(C(=O)Nc2ccc(Oc3ccccc3)cc2)o1,19.4 µM (inactive)
4,Cc1cc2nnc(SCC(=O)NCc3ccco3)n2c2ccccc12,1.9 µM
5,N#CC1=C2SCC(O)(c3ccccc3)N2C(=O)CC1c1cccs1 (stereo not drawn),0.361 µM
6,CCCCCCn1c2c(c(=N)c3c1CCC3)CCC2,0.482 µM
7,COc1ccccc1C1CC(=O)Nc2cc3c(cc21)OCCO3 (stereo not drawn),0.912 µM
8,CS(=O)(=O)N1CCc2cc(-c3csc(NC(=O)Cc4cccs4)n3)ccc21,19.1 µM (inactive)
9,Cc1cccc(OCC(=O)Nc2cc(C)ccc2O)c1,5.78 µM (inactive)
10,O=C(Nc1ccc(N2CCOCC2)cc1)Nc1ccc2nc(-c3ccco3)c(-c3ccco3)nc2c1,10.4 µM (inactive)
11,COc1cc(C)c(C(C)C)cc1S(=O)(=O)n1cnc(C)c1,7.61 µM (inactive)
12,Nc1c(C(=O)Nc2ccc3c(c2)OCCO3)nnn1CCc1ccccc1,4.23 µM
13,C=CCn1c(SCc2c(C)noc2C)nc2cc(C(=O)O)ccc2c1=O,3.4 µM
14,CCN(CC)c1ccc2c(c1)OC(N)=C(C#N)C2c1cccnc1 (stereo not drawn),0.0192 µM
15,CC(=O)c1ccc(Oc2cc(C)nc(-n3nc(C)cc3C)n2)cc1,0.293 µM
16,CCOC(=O)C1=C(CNCc2ccc(C)cc2)NC(=O)NC1c1ccc(OC)cc1 (stereo not drawn),> 40 µM (inactive)
17,CCn1ncc(C2=NOC(C(=O)NCc3ccccc3)C2)c1C (stereo not drawn),1.09 µM
18,O=C(Nc1ccccc1C(F)(F)F)c1cc(-c2ccccc2O)on1,> 40 µM (inactive)
19,O=C(Nc1ccncc1)C1CCCN(S(=O)(=O)c2cccc3cccnc23)C1 (stereo not drawn),1.42 µM
20,COc1ccc(C2=NOC(C(=O)NCc3ccc(F)cc3)C2)cc1OC (stereo not drawn),0.318 µM
21,Cc1ccccc1-n1ncc2c(SCC(=O)NCc3cccs3)ncnc21,5.39 µM (inactive)
22,Cc1nc(C)c2c(=O)cc(-c3ccccc3)[nH]c2n1,4.05 µM

row,SMILES,CC50
1,CCOc1cc(C#N)c(NC(=O)c2ccco2)cc1OCC,4.31 µM
2,COc1cc2c(cc1OC)CN(C(=O)c1cc3ccccc3oc1=O)CC2,5.04 µM (inactive)
3,COc1ccc(CC(=O)Nc2cccc(-c3nnc(-c4ccccc4)o3)c2)cc1OC,15.8 µM (inactive)
4,CCc1ccc(CNc2ccc(O)cc2)cc1,> 40 µM (inactive)
5,C=CCN(CC=C)S(=O)(=O)c1ccc2nc(NC(=O)C(C)C)sc2c1,3.72 µM
6,CCOC(=O)CS(=O)(=O)c1nc(-c2ccccc2)cc(C(F)(F)F)n1,3.42 µM
7,COc1ccc(NS(=O)(=O)c2cc(C)ccc2C)cc1,5.18 µM (inactive)
8,CCOC(=O)Nc1cc(=O)c2ccccc2o1,> 4.4 µM (inactive)
9,CC1=C(C)CS(=O)N(S(=O)(=O)c2ccc(Cl)cc2)C1 (stereo not drawn),2.96 µM
10,O=C(Nc1ccc(N2CCCCC2)c(Cl)c1)c1cccnc1,> 40 µM (inactive)
11,COc1cccc(Cn2c(-c3nonc3N)nc3ccccc32)c1,1.06 µM
12,CCCOC(=O)c1[nH]c2c(c1C)C(=O)CC(c1cc(OC)c(OC)c(OC)c1)C2 (stereo not drawn),23.8 µM (inactive)
13,O=C(CCCCn1c(=O)c2ccccc2n(Cc2ccc(F)cc2)c1=O)NCc1ccco1,9.14 µM (inactive)
14,CCOc1ccc(-c2cc(C(=O)O)c3ccccc3n2)c(OCC)c1,> 40 µM (inactive)
15,N#Cc1c(NCc2ccccc2)ccnc1NCc1cccnc1,4.17 µM
16,N#Cc1c(NC(=O)CSc2nc(N)cc(=O)[nH]2)sc2c1CCCCCC2,6.25 µM (inactive)
17,O=C(c1cc(-c2ccc(O)cc2)on1)N1CCc2ccccc2C1,> 40 µM (inactive)
18,Cc1cc(NC(=O)CSc2nc(-c3ccco3)cc(C(F)(F)F)n2)n(-c2ccccc2)n1,4.28 µM
19,CN(C)c1ccc2c(c1)OC(N)=C(C#N)C2c1cccc(F)c1 (stereo not drawn),0.106 µM
20,COC(=O)Nc1ccc(S(=O)(=O)N2CCCc3ccccc32)cc1,1.06 µM
21,c1ccc2c(c1)[nH]c1c(N3CCCC3)ncnc12,13.3 µM (inactive)
22,CC(=O)C(C(C)=O)c1c(Cl)c(O)c(O)c2c(C(=O)c3ccccc3)coc12,8.76 µM (inactive)

row,SMILES,CC50
1,Cc1nc2ccccc2n1CC(=O)NCc1ccccc1,5.34 µM (inactive)
2,Cc1ccc2cc(CN(Cc3ccco3)C(=O)c3cccs3)c(=O)[nH]c2c1,2.6 µM
3,CCOC(=O)C1CCN(CC(=O)Nc2c(C(=O)OC)[nH]c3ccc(Cl)cc23)CC1,31.2 µM (inactive)
4,Cc1c(C(=O)N2CCOCC2)[nH]c2c1C(=O)CC(c1ccccc1Cl)C2 (stereo not drawn),1.6 µM
5,CCN(CC)c1nc(C#N)cc(-c2ccc(OC)cc2)n1,5.36 µM (inactive)
6,CN(C)c1ccc(C2C=C(c3ccc(Cl)cc3OC(F)F)Nc3ncnn32)cc1 (stereo not drawn),3.56 µM
7,c1csc(CCNc2ncnc3sc4c(c23)CCC4)c1,13.2 µM (inactive)
8,O=C(Nc1ccc(SC(F)F)cc1)c1ccc2nccnc2c1,13.1 µM (inactive)
9,C=CCOC(=O)c1[nH]c2c(c1C)C(=O)CC(c1cc(OC)c(OC)c(OC)c1)C2 (stereo not drawn),24 µM (inactive)
10,CCCCN(CC)S(=O)(=O)c1ccc(C(=O)Nc2nnc(CSC)o2)cc1,37.6 µM (inactive)
11,COc1cc(NC(=O)c2cc(-c3cccs3)on2)cc(OC)c1OC,12.8 µM (inactive)
12,Cc1ccc2c(c1)[nH]c1c(N3CCN(Cc4ccccc4)CC3)ncnc12,> 40 µM (inactive)
13,CCOC(=O)c1c(C)c(C(=O)Nc2cc(F)ccc2F)c(C)n1C,6.52 µM (inactive)
14,Nc1ccc(N2CCCCCC2)cc1,26.3 µM (inactive)
15,CCCCOc1ncnc2c1[nH]c1ccc(F)cc12,> 40 µM (inactive)
16,CN(C)c1ccc(-c2nn3c(-c4ccccc4Cl)nnc3s2)cc1,0.312 µM
17,COc1ccc(C)cc1Nc1cc(C)nc2nc(C)nn12,7.08 µM (inactive)
18,CCC(=O)Nc1nc2ccccc2n1Cc1ccc(C)cc1,> 40 µM (inactive)
19,CCOc1ccccc1NC(=O)c1cccc(NC(=O)c2ccco2)c1,1.27 µM
20,O=C(Nc1nnc(-c2cccs2)o1)c1cccc(F)c1,21.7 µM (inactive)
21,CCc1ccc(NS(=O)(=O)c2cc(OC)ccc2OC)cc1,16.6 µM (inactive)
22,O=C(c1cccc(C(=O)N2CCN(c3ccc(F)cc3)CC2)c1)N1CCN(c2ccc(F)cc2)CC1,> 40 µM (inactive)

row,SMILES,CC50
1,CCOC(=O)C1CCN(C(c2cccnc2)c2c(NC(=O)c3ccco3)sc(C)c2C)CC1 (stereo not drawn),> 40 µM (inactive)
2,CCN(CC)c1ccc2cc(-c3nc4ccccc4n3C)c(=O)oc2c1,0.32 µM
3,CCCc1ccc(-c2ccc(F)c(N)c2)nc1,> 40 µM (inactive)
4,Cn1c(C(=O)NCc2cccs2)cc2oc3ccccc3c21,> 40 µM (inactive)
5,CCCCn1c2c(c(=N)c3c1CCC3)CCC2,3.9 µM
6,COC(=O)c1ccccc1NC(=O)Cn1c(-c2nonc2N)nc2ccccc21,0.245 µM
7,Cc1c(C(=O)OCC2CCCO2)[nH]c2c1C(=O)CC(c1ccco1)C2 (stereo not drawn),2.6 µM
8,CCN(Cc1ccncc1)S(=O)(=O)c1ccc(C(C)=O)cc1,9.44 µM (inactive)
9,CCOC(=O)c1ccc(Oc2cc(C)nc(SC)n2)cc1,7.92 µM (inactive)
10,COc1ccc(N2CCn3c2nc2c3c(=O)n(CCCc3ccccc3)c(=O)n2C)c(OC)c1,> 40 µM (inactive)
11,CC(C)Oc1ccccc1C1CC(=O)Nc2cc3c(cc21)OCO3 (stereo not drawn),0.812 µM
12,CCc1ccc2oc(-c3cc(N)cc(C)c3O)nc2c1,> 13 µM (inactive)
13,COc1ccc(OC)c(Nc2cc(-c3ccccc3)nc(N)n2)c1,0.699 µM
14,CCCS(=O)(=O)c1nnnn1-c1cccc(OC)c1,1.73 µM
15,CCN(Cc1ccccc1)S(=O)(=O)c1ccc(C(=O)Nc2nnc(C3CC3)o2)cc1,32.5 µM (inactive)
16,O=C1CCCN1c1ccc(S(=O)(=O)Nc2ccc3c(c2)OCCO3)cc1,1.78 µM
17,Cc1ccnc(NC(=O)CCCOc2cc(=O)n(C)c3ccccc23)c1,5.58 µM (inactive)
18,O=C(CSc1nnnn1-c1ccc2c(c1)OCO2)NCc1ccccc1,> 4.4 µM (inactive)
19,CCCC(=O)Nc1nc2ccc(S(=O)(=O)N3CCCCC3)cc2s1,2.82 µM
20,Cc1ccccc1S(=O)(=O)Cc1ccc(C(=O)N2CCN(c3cccc(C)c3C)CC2)o1,2.27 µM
